# Conditions: for aqueous solubility: pH 6.8
SMILES,MDR1-MDCK efflux ratio,"fraction unbound, human plasma","fraction unbound, rat plasma","intrinsic clearance, human liver microsomes [mL/min/kg]","intrinsic clearance, rat liver microsomes [mL/min/kg]",aqueous solubility [µg/mL]
Cc1nccc(-c2cn(Cc3ccccc3)c3cnccc23)n1,0.675,0.133,0.161,51.4,2130,33.7
Cc1ccc(C)c2nc3c(cc12)CNCCO3,0.525,–,–,23.7,234,–
N#Cc1ccc(COc2cnc3ccccc3n2)cc1,0.507,–,–,–,–,0.19
O=C(Cc1ccc(F)cc1)NCCn1cccnc1=O,9.23,–,–,≤ 4.74,22.7,63.3
CC(=O)N1CCN(C(=O)c2ccc(-c3ccc(F)cc3)cc2F)CC1,1.47,–,–,≤ 4.74,20,74.5
Cc1nccn1CCNC(=O)C(C)(C)C,6.52,–,–,≤ 4.74,≤ 10.7,26.2
CCCN(C)C(=O)Nc1cccc(-c2nnc3n2CCCCC3)c1,92.4,–,–,≤ 4.74,44.5,39.4
CC1(C)CC(=O)c2c(C(F)(F)F)nn(-c3ccc(C(N)=O)c(N[C@H]4CC[C@H](OC(=O)CN)CC4)c3)c2C1,–,–,–,204,469,–
CCONC(=O)c1cncn1-c1ccc(F)cc1,2.24,–,–,≤ 4.74,≤ 10.7,48
Cc1ccc(NC(=O)CN(C)C2CCCCC2)cc1S(=O)(=O)N(C)C,1.45,–,–,432,3870,–
O=C(C1CCCN(C(=O)N2CCCC2)C1)N1CCc2ccccc2C1 (centres undefined),–,–,–,87.1,1010,57.4
Cc1nc(-c2ccccc2)c(C(=O)Nc2ccccc2)s1,0.571,–,–,–,–,0.9
Cc1ccnc(NC(=O)C2CCN(CCc3cccs3)CC2)c1,–,–,–,–,–,65.5
CCOc1cc(-c2nnc(NC(=O)c3cccc(C(F)(F)F)c3)o2)cc(OCC)c1OCC,–,–,–,7.61,17.5,–
CC(C)N(CCCNC(=O)Nc1ccc(C(C)(C)C)cc1)C[C@@H]1O[C@@H](n2cc(Br)c3c(N)ncnc32)[C@H](O)[C@H]1O,17,–,–,354,2010,–
O=C(CCCC(=O)N1CCN(c2nsc3ccccc23)CC1)Nc1nccs1,11.2,–,–,73.7,512,–
O=C(OCc1cc(Cl)ccn1)c1ccc2[nH]c(C(F)F)nc2c1,1.37,–,–,515,1520,35
N#Cc1ccc(NS(=O)(=O)c2c[nH]c3nc(Cl)ccc23)c(F)c1,6.41,–,–,≤ 4.74,–,13.1
Cc1cnn(Cc2nc(Cn3cccn3)no2)c1,0.771,–,–,≤ 4.74,≤ 10.7,36
O=C(Cc1ccc2c(c1)CCCC2)Nc1ccc(-n2cnnn2)cc1,–,–,–,–,–,0.95
CCCn1nccc1NC(=O)c1c(C)noc1C,1.59,–,–,≤ 4.74,≤ 10.7,31.5
COCCNc1c(C)c(C)nc2cc(-c3nccn3C)nn12,1.53,–,–,21.1,79.6,–
O=C(CN1CCOC(c2ccc(F)cc2)C1)Nc1ccccc1OC(F)F (centres undefined),0.589,–,–,93.6,566,23.1
Nc1nc2ccccc2n1C1CCCC1,–,–,–,37.1,87.6,–
Cc1cc2nc(CCC(=O)N3CCc4n[nH]cc4C3)[nH]c2cc1C,24,–,–,17.4,190,–
CC(C)CC(NC(=O)C(O)C(N)Cc1ccccc1)C(=O)O (centres undefined),0.744,–,0.347,–,–,–
OC[C@H](Nc1cncc(-c2ccc3[nH]ncc3n2)c1)c1ccccc1,25,0.104,0.106,9.8,330,32.7
COCCNC(=O)CN1CCN(c2nccn2-c2cccc(Cl)c2)CC1,52.5,–,–,5.04,353,60.9
O=C(O)c1ccc(N2CCCC2)c(F)c1,0.865,–,–,≤ 4.74,14.4,27.3

# From the Biogen ADME set (Fang et al. 2023)
